{
  "source": "patent US10098841B2",
  "about": "“Method of inducing a phase transition of a bilayer membrane vesicle” (Japan Science and Technology Agency, priority 2005, dated 2018)",
  "key": {"[1]": {"assay": "Solubility in the phosphate buffer used in the examples", "format": "physicochemical", "conditions": "aqueous buffer, buffer 5 mM NaH2PO4, 0.15 M NaCl, pH 7.5, read-out: solubility against the buffer", "protocol": "The solubility of the dihydric alcohol 1A against the buffer (5 mM NaH2PO4, 0.15 M NaCl, pH 7.5) used in the examples was about 10 mM.\nThe solubility of the dihydric alcohol 1B against the buffer (5 mM NaH2PO4, 0.15 M NaCl, pH 7.5) used in the examples was about 0.2 mM."}, "[2]": {"assay": "Membrane fusion experiment using MLV, change in fluorescence (F value, NBD-PE to Rh-PE energy transfer)", "conditions": "for membrane fusion of MLV (in words): from F value over time", "text": "Examples of means for evaluating and observing a phase transition such as fusion of the membranes include observation by electron microscope, quantification of the produced pseudo-ceramide (for example, by mass spectrometry), and measurement of the change in fluorescence. In the case of measuring changes in fluorescence, a compound which causes a fluorescence energy transfer to another compound that present in the vicinity of the compound is introduced as a component of the bilayer membrane. Examples of such compounds include the combination of 1,2-dimyristyl-sn-glycero-3-phosphoethanolamine-N-(7-nitro-2-1,3-benzoxadiazol-4-yl) (NBD-PE) and 1,2-dimyristyl-sn-glycero-3-phosphoethanolamine-N-(lissamine rhodamine B sulfonyl) (Rh-PE). The former is the energy donor, and the latter is the energy acceptor. […] As for evaluating changes in the fluorescence, it is possible to use the fluorescence change F that is obtained by:\nFor example, when NBD-PE and Rh-PE are included in separate vesicles, the F value increases by fusion of the vesicles. To the contrary, when a vesicle including both NBD-PE and Rh-PE fuses with a vesicle including neither, the distance between the NBD-PE and Rh-PE increases so that the F value decreases.\nFirst, 1 mL each of the MLV dispersions that contain a tertiary amine (C8 or C16) obtained in Example 1 were mixed at room temperature. A solution of 2-chloro-4,6-dimethoxy-1,3,5-triazin (CDMT) (150 mM or 300 mM) in methanol (21.7 μL) was added thereto, and allowed to stand at room temperature. Next, to the MLV dispersion obtained in Example 2, a solution of 4-(4,6-dimethoxy-1,3,5-triazin-2-yl)-4-methylmorpholium chloride (DMT-MM) (225 mM or 300 mM) in methanol (21.7 μL), which is a water-soluble dehydrating condensing agent, was added to prepare a mixture. As a control experiment, a mixture to which 21.7 μL of methanol was added instead of the CDMT solution was prepared.\nThe change in fluorescence over time of the prepared mixtures was measured with a fluorometer. The excitation wavelength was 470 nm. As mentioned above, the F value was used as the criterion for the change in fluorescence."}, "[3]": {"assay": "Change in particle size accompanying MLV fusion (DLS)", "conditions": "MLV with C8-tertiary amine 0.2 equivalent, CDMT 50 equivalents", "protocol": "The MLV dispersion prepared was separated into 2 mL portions, and 50 equivalents (21.7 μL) CDMT (300 mM in methanol) was added thereto. For the control, 21.7 μL of methanol was added. Two samples were prepared and the particle size after 12 hours was measured by dynamic light scattering (DLS)."}, "[4]": {"assay": "Membrane fusion experiment using SUV (F value)", "conditions": "SUV with C16-tertiary amine", "protocol": "Sodium laurate (45.0 mM in methanol, 5.8 μL), the dihydric alcohol 1B (38.5 mM in chloroform, 6.8 μL), C16-tertiary amine (3.05 mM in chloroform, 17.0 μL), nonreduced egg yolk lecithin (13.0 mM in chloroform, 19.0 μL), and a fluorescent agent (for NBD-PE: 1.23 mM in chloroform, 10.6 μL; for Rh-PE: 4.19 mM in chloroform, 3.1 μL) were placed into a 20-mL eggplant-shaped flask, and the solvent was evaporated under reduced pressure using a rotary evaporator. The thin film formed on the inner well of the flask was further dried under reduced pressure using a vacuum pump (room temperature, 0.5 hours). Then, 4 mL of phosphate buffer (5 mM NaH2PO4/Na2HPO4, 0.15 M NaCl, pH 8.5) was added thereto, and ultrasonic waves were applied for 30 seconds using a bath-type ultrasonic wave generation device. Next, the mixture was stirred and shaken for 10 minutes with a vortex mixer at 100% strength. […]\nUsing the SUV dispersion containing NBD-PE and Rh-PE obtained in Example 6, the change in fluorescence over time was measured in the same way as in the membrane fusion experiment with MLV of Example 3. The F value was calculated from the intensity of the fluorescence peaks to evaluate SUV fusion."}, "[5]": {"assay": "SUV membrane fusion by fluorescence dilution method", "conditions": "CDMT 25 or 50 equivalents; SUV with and without fluorescent agent", "protocol": "An SUV dispersion with a fluorescent agent and an SUV dispersion without a fluorescent agent, of the compositions shown in Table 5 were prepared according to the SUV preparation method described in Example 6.\nFirst, 0.2 mL of the prepared SUV dispersion with a fluorescent agent and 1.8 mL of the SUV dispersion without a fluorescent agent were mixed at room temperature. Three samples were prepared for each SUV. To two of these samples 10.8 μL (25 equivalents) or 21.7 μL (50 equivalents) of CDMT (300 mM in methanol) was added respectively, and allowed to stand at room temperature. As a control experiment, 21.7 μL of methanol was added to the remaining sample, and also allowed to stand, and then the fluorescence was measured at a given time interval.\nUnlike the mixing method of Example 7, in the case of the fluorescence dilution method of Example 8, the F value becomes smaller as fusion proceeds. […] It should be noted that in the graph of FIG. 5, it appears as if at initial state there is a difference between the control sample and the samples to which CDMT has been added."}, "[6]": {"assay": "Change in particle size accompanying SUV fusion (DLS)", "conditions": "for Z average (average diameter): CDMT 50 equivalents; for number of SUVs fused, from change in particle size: about 3 hours", "protocol": "SUV dispersions with the compositions shown in Table 6 were prepared in accordance with the SUV preparation method described in Example 6.\nThe prepared SUV dispersions were filtered through a 0.45-μm pore size filter and each was divided into two 2 mL samples, one of which was supplied with 21.7 μL (50 equivalents) of CDMT (300 mM in methanol) and the other supplied with 21.7 μL of methanol as a control experiment, and allowed to stand at room temperature. The particle size after three hours was measured by DLS."}, "[7]": {"assay": "Observation of SUV by transmission electron microscope", "conditions": "SUV with sodium laurate and C16-tertiary amine", "protocol": "A SUV dispersion of the composition shown in Table 8 was prepared in accordance with the SUV preparation method described in Example 6.\nTo 200 μL of the prepared SUV dispersion, 4.3 μL of CDMT (300 mM in methanol) was added, and allowed to stand at room temperature. As a control experiment, 4.3 μL of methanol was added instead of CDMT, and allowed to stand at room temperature. Several drops of the SUV dispersion after standing were placed on a carrier, frozen with liquid nitrogen, and prepared specimens for electron microscopy (replicas) by a freeze fracturing method ordinarily performed by those skilled in the art (JEOL JFD-9010 was used). The specimens obtained were observed by TEM (JEOL JEM-1010) (acceleration voltage 100 kv). The arrows in the micrographs indicate the SUV."}, "[8]": {"assay": "Fusion experiment between active SUV and inactive SUV (fluorescence dilution)", "conditions": "CDMT 35 equivalents; runs 2 and 3, one SUV inactive", "protocol": "In accordance with the fluorescence dilution method described in Example 8, 0.2 mL of the prepared SUV dispersion with a fluorescent agent and 1.8 mL of the SUV dispersion without a fluorescent agent were mixed at room temperature. […] Then, 15.2 μL (4.55 μmol: 35 equivalents of the total fatty acid salt of run 1) of CDMT (300 mM in methanol) was added thereto, allowed to stand at room temperature, and the change in the F values over time was measured with a fluorometer."}, "[9]": {"assay": "Leaking of aqueous phase within SUV accompanying fusion (calcein)", "conditions": "with fusion, CDMT 50 equivalents", "protocol": "Accordingly, in this example, by utilizing the property of the compound, a fusion test was performed for liposomes in which (in the inner aqueous phase) calcein has been contained at a high concentration in advance.\nThe SUV was prepared according to the method described in Example 6. However, the calcein (75 mM) was added to a phosphate buffer (5 mM NaH2PO4/Na2HPO4, 0.15 M NaCl, pH 8), and ultrasonic wave treatment was performed to produce SUVs. The SUVs were separated by gel filter (Sephadex G-50, using the same phosphate buffer solution in the mobile phase) to remove the calcein present in the outside aqueous phase, giving a SUV dispersion.\nCDMT (50 equivalents) was added to the obtained SUV dispersion, and allowed to stand at room temperature and the fluorescence (520 nm) was measured (FS) after a given time, and immediately after Triton X-100 (10%, 200 μL) was added to destroy the SUV, and then the fluorescence was measured again (FT). […] The rate of leakage was calculated by the following equation.\n[formula] • F0: Fluorescence intensity at 0 hours • FS: Fluorescence intensity at each hour • FT: Fluorescence intensity after adding Triton X-100"}},
  "note": "“And” between values parts separate entries of the source, which are not always exact repeats. Equal values may be shown once.",
  "data": [
    {"smiles": "CCCCCCCCCCCCNCC(O)CO", "note": "(stereo not drawn) [dihydric alcohol 1B, 3-dodecylamino-1,2-propanediol]", "values": [
      {"measurement": "solubility", "setting": "[1]", "value": "~0.2", "unit": "mM"}
    ]},
    {"smiles": "COc1nc(Cl)nc(OC)n1", "note": "[CDMT, 2-chloro-4,6-dimethoxy-1,3,5-triazin]", "values": [
      {"measurement": "Change in fluorescence (F value)", "setting": "[2]; CDMT 25 equivalents, C16 tertiary amine in MLV, 2 hr", "value": 1.64},
      {"measurement": "Change in fluorescence (F value)", "setting": "[2]; CDMT 25 equivalents, C16 tertiary amine in MLV, 5 hr", "value": 8.10},
      {"measurement": "Change in fluorescence (F value)", "setting": "[2]; CDMT 50 equivalents, C8 tertiary amine in MLV, 5 hr", "value": 2.22},
      {"measurement": "Change in fluorescence (F value)", "setting": "[2]; CDMT 50 equivalents, C8 tertiary amine in MLV, 12 hr", "value": 5.40},
      {"measurement": "Change in fluorescence (F value)", "setting": "[2]; CDMT 50 equivalents, C16 tertiary amine in MLV, 2 hr", "value": 4.41},
      {"measurement": "Change in fluorescence (F value)", "setting": "[2]; CDMT 50 equivalents, C16 tertiary amine in MLV, 5 hr", "value": 10.4},
      {"measurement": "membrane fusion of MLV (in words)", "setting": "[2]", "value": "membrane fusion occurs"},
      {"measurement": "Z average (average diameter)", "setting": "[3]; 0 hr", "value": "235.2 nm and 232.4 nm"},
      {"measurement": "Z average (average diameter)", "setting": "[3]; 12 hr", "value": "280.3 nm and 278.2 nm"},
      {"measurement": "SUV membrane fusion (F value, FIG. 4, in words)", "setting": "[4]", "value": "membrane fusion occurred"},
      {"measurement": "change in fluorescence, fluorescence dilution method (FIG. 5, in words)", "setting": "[5]", "value": "a decrease in the fluorescence was found"},
      {"measurement": "Z average (average diameter)", "setting": "[6]; SUV with lauric acid, 0 hr", "value": 92.7, "unit": "nm"},
      {"measurement": "Z average (average diameter)", "setting": "[6]; SUV with lauric acid, 3 hr", "value": 218.7, "unit": "nm"},
      {"measurement": "Z average (average diameter)", "setting": "[6]; SUV with oleic acid, 0 hr", "value": 66.1, "unit": "nm"},
      {"measurement": "Z average (average diameter)", "setting": "[6]; SUV with oleic acid, 3 hr", "value": 213.8, "unit": "nm"},
      {"measurement": "number of SUVs fused, from change in particle size", "setting": "[6]; laurate SUV", "value": "10 to 20"},
      {"measurement": "number of SUVs fused, from change in particle size", "setting": "[6]; oleate SUV", "value": "30 to 40"},
      {"measurement": "particle size by TEM after CDMT addition", "setting": "[7]", "value": "greater than 1 μm"},
      {"measurement": "change in F value, active/inactive SUV combinations (FIG. 9, in words)", "setting": "[8]", "value": "the F value significantly changes"},
      {"measurement": "Rate of leakage", "setting": "[9]; 1 hr", "value": 6.5, "unit": "%"},
      {"measurement": "Rate of leakage", "setting": "[9]; 2 hr", "value": 7.1, "unit": "%"},
      {"measurement": "Rate of leakage", "setting": "[9]; 3 hr", "value": "8% and 8.3%"}
    ]},
    {"smiles": "CCCCCCCCNCC(O)CO", "note": "(stereo not drawn) [dihydric alcohol 1A, 3-octylamino-1,2-propanediol]", "values": [
      {"measurement": "solubility", "setting": "[1]", "value": "~10", "unit": "mM"}
    ]},
    {"smiles": "COc1nc(OC)nc([N+]2(C)CCOCC2)n1.[Cl-]", "note": "[DMT-MM, 4-(4,6-dimethoxy-1,3,5-triazin-2-yl)-4-methylmorpholium chloride]", "values": [
      {"measurement": "Change in fluorescence (F value)", "setting": "[2]; DMT-MM 38 equivalents, MLV without tertiary amine, 36 hr", "value": 1.42},
      {"measurement": "Change in fluorescence (F value)", "setting": "[2]; DMT-MM 50 equivalents, MLV without tertiary amine, 36 hr", "value": 1.64},
      {"measurement": "membrane fusion of MLV (in words)", "setting": "[2]", "value": "membrane fusion occurred extremely slowly"}
    ]}
  ]
}
